We go through two substances from patent publication US20220018849A1, “SERINE HYDROLASE PROFILING ASSAY IN BIOTHERAPEUTICS” (Merck Sharp & Dohme Corp., priority 2020, published 2022).

The conditions of series [1]: reference 6; cited from earlier work.
The subject of another series is serine hydrolases. As to the kind of experiment: Activity-based chemical proteomics approach (fluorophosphonate probe enrichment, LC-MS/MS). The settings on record: HCCF, compared to other lipases.
Series [2] in a line: PS-80 degradation in protein formulations containing PLBL2 (unpublished results). The series is classed as physicochemical. The settings on record: protein formulations containing over 500 ppm of PLBL2.

For the substance phospholipase A2, group XV [Pla2g15], in series [1], the “concentration at which PS-80 and PS-20 are degraded (as low as)” value was 0.3 ppm; the “concentration with significant impact on PS-80 degradation” value was “below 1 ppm”.

On to “phospholipase B domain containing 2 [Plbd2]”, for which the results for the “enrichment of the enzyme by the chemical probes” value in the series with serine hydrolases (listed as CHO PLBL2) and in the series with serine hydrolases (listed as Plbl2) were “not enriched” and “limited enrichment”, respectively. For the same substance, the PS-80 degradation result in series [2] is “without any PS-80 degradation”.
